This is an account of results in patent US20090036444A1, “5-5-Membered fused heterocyclic compound and use thereof as HCV polymerase inhibitor” (priority 2003, published 2009).

Assay [1] addresses T1, HCV polymerase H544 1b 3X (Hepatitis C virus genotype 1b, UniProt P26663).
T1 construct: a region encoding NS5B (J Virol 1991 March, 65(3), 1105-13, 544 amino acids after deletion of 47 amino acids on the C-terminal); 6 His (C); made in house; host or cells: Escherichia coli
The experiment in a line: Assay of enzyme (HCV polymerase) inhibitory activity, H544 1b 3X. Format: biochemical, HCV BK strain. The source says: The evaluation of the HCV polymerase inhibitory activity of the compound of the present invention is explained in the following. This polymerase is an enzyme coded for by the non-structural protein region called NS5B on the genome RNA of HCV (EMBO J., 15:12-22, 1996).
Using, as a template, a cDNA clone corresponding to the full length genome RNA of HCV BK strain obtained from the blood of a patient with hepatitis C, a region encoding NS5B (J Virol 1991 March, 65(3), 1105-13, 544 amino acids after deletion of 47 amino acids on the C-terminal) was amplified by PCR. The objective gene was prepared by adding a 6 His tag {base pair encoding 6 continuous histidine (His)} to the 3′ end thereof and transformed to Escherichia coli. The Escherichia coli capable of producing the objective protein was cultured. The obtained cells were suspended in a buffer solution and crushed in a microfluidizer. The supernatant was obtained by centrifugation and applied to various column chromatographys {mono-S, Sephacryl S-200 (Pharmacia)}, inclusive of metal chelate chromatography, to give a standard enzyme product.
Using a synthetic primer designed based on the sequence of HCV genomic 3′ untranslated region, a DNA fragment (148 bp) containing polyU and 3′X sequence was entirely synthesized and cloned into plasmid pBluescript SK II (+) (Stratagene). The cDNA encoding full length NS5B, which was prepared in i) above, was digested with restriction enzyme KpnI to give a cDNA fragment containing the nucleotide sequence of from the restriction enzyme cleavage site to the termination codon. This cDNA fragment was inserted into the upstream of 3′ untranslated region of the DNA in pBluescript SK II(+) and ligated. The about 450 bp inserted DNA sequence was used as a template in the preparation of substrate RNA. This plasmid was cleaved immediately after the 3′X sequence, linearized and purified by phenol-chloroform treatment and ethanol precipitation to give DNA.
RNA was synthesized (37° C., 3 hr) by run-off method using this purified DNA as a template, a promoter of pBluescript SK II(+), MEGAscript RNA synthesis kit (Ambion) and T7 RNA polymerase. DNase I was added and the mixture was incubated for 1 hr. The template DNA was removed by decomposition to give a crude RNA product. This crude product was treated with phenol-chloroform and purified by ethanol precipitation to give the objective substrate RNA.
This RNA was applied to formaldehyde denaturation agarose gel electrophoresis to confirm the quality thereof and preserved at −80° C.
A test substance (compound of the present invention) and a reaction mixture (30 μl) having the following composition were reacted at 25° C. for 90 min. 10% Trichloroacetic acid at 4° C. and 1% sodium pyrophosphate solution (150 μl) were added to this reaction mixture to stop the reaction. The reaction mixture was left standing in ice for 15 min to insolubilize RNA. This RNA was trapped on a glass filter (Whatman GF/C and the like) upon filtration by suction. This filter was washed with a solution containing 1% trichloroacetic acid and 0.1% sodium pyrophosphate, washed with 90% ethanol and dried. A liquid scintillation cocktail (Packard) was added and the radioactivity of RNA synthesized by the enzyme reaction was measured on a liquid scintillation counter.
The HCV polymerase inhibitory activity (IC50) of the compound of the present invention was calculated from the values of radioactivity of the enzyme reaction with and without the test substance.
The results are shown in Table 18, wherein each symbol means that IC50 falls within the following range.
Reaction mixture: HCV polymerase (0.5 μg/ml) obtained in i), substrate RNA (5 μg/ml) obtained in ii), ATP (50 μM), GTP (50 μM), CTP (50 μM), UTP (2 μM), [5,6-^3H] UTP (46 Ci/mmol (Amersham), 1 μCi) 20 mM Tris-HCl (pH 7.5), EDTA (1 mM), MgCl2 (5 mM), NaCl (50 mM), DTT (1 mM), BSA (0.01%)

The target in assay [2] is T2, HCV polymerase H544 1a 3X (UniProt P27958).
T2 construct: fused on or other part: 6 His tag at the C-terminus, for the BK (1b) enzyme
The experiment in a line: Assay of enzyme (HCV polymerase) inhibitory activity, H544 1a 3X. The class given is biochemical.

Where [3] appears, read: 25° C., 90 min, [5,6-3H]UTP incorporation, read-out: H544 1a 3X IC50.
Setting [4] is: read-out: H544 1a 3X IC50, 25° C., 90 min, [5,6-3H]UTP incorporation.

Structures can show the parent of a compound that is named as a salt. Where two headings read alike, the source gives them in different places.

T1 sequence (P26663 2420-2963): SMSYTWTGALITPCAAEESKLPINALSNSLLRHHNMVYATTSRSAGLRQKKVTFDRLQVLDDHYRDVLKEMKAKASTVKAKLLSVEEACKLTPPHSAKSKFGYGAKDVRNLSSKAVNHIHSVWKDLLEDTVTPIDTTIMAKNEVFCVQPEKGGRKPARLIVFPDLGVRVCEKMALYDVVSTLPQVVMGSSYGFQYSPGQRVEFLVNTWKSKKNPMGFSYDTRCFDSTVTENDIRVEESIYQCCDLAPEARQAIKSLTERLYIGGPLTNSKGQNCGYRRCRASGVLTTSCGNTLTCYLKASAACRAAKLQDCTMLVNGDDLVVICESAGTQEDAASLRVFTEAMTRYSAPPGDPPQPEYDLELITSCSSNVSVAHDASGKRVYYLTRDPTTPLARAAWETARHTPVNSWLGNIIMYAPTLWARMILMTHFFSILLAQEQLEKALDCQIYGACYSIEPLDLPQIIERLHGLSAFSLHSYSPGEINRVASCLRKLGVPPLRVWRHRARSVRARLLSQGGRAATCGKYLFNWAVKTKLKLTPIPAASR

With `CN(CC(=O)N1CCCCC1)C(=O)Cn1c(-c2ccc(OCc3ccccc3)cc2)c(C2CCCCC2)c2sc(C(=O)O)cc21` [Example 50, 5-(4-benzyloxyphenyl)-6-cyclohexyl-4-{[N-methyl-N-(2-oxo-2-piperidinoethyl)carbamoyl]methyl}-4H-thieno[3,2-b]pyrrole-2-carboxylic acid], the IC50 in assay [1] and in assay [2] (setting [3]) was less than 0.1 µM each time.

Consider `O=C(Cn1c(-c2ccc(OCc3ccccc3)cc2)c(C2CCCCC2)c2sc(C(=O)O)cc21)Nc1ccc(N2CCOCC2)cc1` [Example 51, 5-(4-benzyloxyphenyl)-6-cyclohexyl-4-[(4-morpholinophenylcarbamoyl)methyl]-4H-thieno[3,2-b]pyrrole-2-carboxylic acid hydrochloride], for which the IC50 in assay [1] and in assay [2] (setting [3]) was less than 0.1 µM each time.

Regarding `O=C(O)c1cc2c(s1)c(C1CCCCC1)c(-c1ccc(OCc3ccccc3)cc1)n2CC(=O)N1CCN(C2CCCCC2)CC1` [Example 52, 5-(4-benzyloxyphenyl)-6-cyclohexyl-4-[2-(4-cyclohexylpiperazin-1-yl)-2-oxoethyl]-4H-thieno[3,2-b]pyrrole-2-carboxylic acid hydrochloride], the IC50 in assay [1] and in assay [2] (setting [3]) was less than 0.1 µM in each case.

In the case of `O=C(O)c1cc2c(s1)c(C1CCCCC1)c(-c1ccc(OCc3ccccc3)cc1)n2CCN1CCN(C2CCCCC2)CC1` [Example 53, 5-(4-benzyloxyphenyl)-6-cyclohexyl-4-[2-(4-cyclohexylpiperazin-1-yl)ethyl]-4H-thieno[3,2-b]pyrrole-2-carboxylic acid dihydrochloride], the IC50 in assay [1] and in assay [2] (setting [4]) was 0.1 to 1 µM throughout.

`O=C(O)c1cc2c(s1)c(C1CCCCC1)c(-c1ccc(OCc3ccccc3)cc1)n2CC(=O)N1CCC(N2CCCCC2)CC1` [Example 54, 5-(4-benzyloxyphenyl)-4-[2-(1,4′-bipiperidinyl-1′-yl)-2-oxoethyl]-6-cyclohexyl-4H-thieno[3,2-b]pyrrole-2-carboxylic acid hydrochloride]: the IC50 in assay [1] and in assay [2] (setting [3]) was less than 0.1 µM in each case.

Consider `O=C(O)c1cc2c(s1)c(C1CCCCC1)c(-c1ccc(OCc3ccccc3)cc1)n2CCN1CCC(N2CCCCC2)CC1` [Example 55, 5-(4-benzyloxyphenyl)-4-[2-(1,4′-bipiperidinyl-1′-yl)ethyl]-6-cyclohexyl-4H-thieno[3,2-b]pyrrole-2-carboxylic acid dihydrochloride], for which the IC50 in assay [1] and in assay [2] (setting [3]) was 0.1 to 1 µM throughout.

Regarding `CN(C)CCn1c(-c2ccc(OCc3cc(S(C)(=O)=O)ccc3N3CCOCC3)cc2)c(C2CCCCC2)c2sc(C(=O)O)cc21` [Example 56, 6-cyclohexyl-4-(2-dimethylaminoethyl)-5-[4-(5-methanesulfonyl-2-morpholinobenzyloxy)phenyl]-4H-thieno[3,2-b]pyrrole-2-carboxylic acid dihydrochloride], the IC50 in assay [1] and in assay [2] (setting [4]) was less than 0.1 µM in each case.

For the compound `CN(C(=O)CN1CCOCC1)c1ccc(N2CCOCC2)c(COc2ccc(-c3c(C4CCCCC4)c4sc(C(=O)O)cc4n3C)cc2)c1` [Example 57, 6-cyclohexyl-4-methyl-5-(4-{5-[N-methyl-N-(2-morpholinoacetyl)amino]-2-morpholinobenzyloxy}phenyl)-4H-thieno[3,2-b]pyrrole-2-carboxylic acid dihydrochloride], the IC50 in assay [1] and in assay [2] (setting [4]) was less than 0.1 µM throughout.

As to `CN(CCN1CCOCC1)CCn1c(-c2ccc(OCc3ccccc3)cc2)c(C2CCCCC2)c2sc(C(=O)O)cc21` [Example 58, 5-(4-benzyloxyphenyl)-6-cyclohexyl-4-{2-[N-methyl-N-(2-morpholinoethyl)amino]ethyl}-4H-thieno[3,2-b]pyrrole-2-carboxylic acid dihydrochloride], the IC50 in assay [1] and in assay [2] (setting [4]) was 0.1 to 1 µM each time.

Turning to `CN(CCN1CCCCC1)CCn1c(-c2ccc(OCc3ccccc3)cc2)c(C2CCCCC2)c2sc(C(=O)O)cc21` [Example 59, 5-(4-benzyloxyphenyl)-6-cyclohexyl-4-{2-[N-methyl-N-(2-piperidinoethyl)amino]ethyl}-4H-thieno[3,2-b]pyrrole-2-carboxylic acid dihydrochloride], the figures for the IC50 in assay [1] and in assay [2] (setting [4]) were less than 0.1 µM and 0.1 to 1 µM, respectively.
